# Like-named read-outs stand apart in the source and are kept apart here.
# Experiments:
# CDK9 = biological target: T1, CDK9 (Homo sapiens, UniProt P50750); experiment: CDK9 degradation by immunoblot (positive control); format: cell-based; conditions: 16 hours
# T1 construct: endogenous in cells; host or cells: Kato III; CCLP1; JHH7
# Method: Kato III cells were treated with 0, 0.1, 1, or 10 M of bispecific compound 6 or 0.5 M THAL-SNS-032 (a known CDK9 degrader and positive control for CDK9 degradation; available from, e.g., MedChemExpress®, Cat. No. HY-10008, Monmouth Junction, N.J.) for 16 hours. Cells were then lysed in RIPA buffer (Millipore Sigma®) containing protease/phosphatase inhibitor cocktail (Roche®). The protein concentrations were measured by bicinchoninic acid assay (BCA) analysis (Pierce™). Equal amounts of protein were resolved by 4-12% Tris-Base gels (Invitrogen™), and then transferred to the Immuno-Blot PVDF membrane (Bio-Rad®), and immunoblotted with primary antibodies against FGFR2 (cell signaling), CDK9 (cell signaling) and […] (cell signaling), and then immunoblotted with IRDye®800-labeled goat anti-rabbit IgG and IRDye®800-labeled goat anti-mouse IgG (LI-COR®) secondary antibodies. The membranes were detected on Odyssey CLx system.
# CCLP1 cells were treated with 0, 0.1, 1, or 10 M of bispecific compound 6 or 0.5 μM THAL-SNS-032 for 16 hours, and then lysed and immunoblotted with antibodies to FGFR1 (cell signaling), CDK9, and β-Actin.
# JHH7 cells were treated with 0, 0.1, 1, or 10 M of bispecific compound 6 or 0.5 M THAL-SNS-032 for 16 hours, and then lysed and immunoblotted with antibodies to FGFR3 (cell signaling), FGFR4 (cell signaling), CDK9, and β-Actin.
# Kato III cells = experiment: cells; conditions: 72 h
# Method: (§1) Kato III cells were treated with bispecific compound 6 or BGJ398 at the indicated concentrations for 72 h. Cell viability was determined using Cell-Titer Glo (Promega™) according to the manufacturer's instructions. IC50 values (defined as the concentration of compound needed to reduce cell viability to 50% of the vehicle DMSO control) were estimated by using GraphPad Prism 7.0 (GraphPad Prism®).
# Cell viability was determined using Cell-Titer Glo (Promega™) according to the manufacturer's instructions. IC50 values were estimated by using GraphPad Prism 7.0 (GraphPad Prism®).
# as §1, with “6, bispecific compound 7” for “6”, “(Promega™),” for “(Promega™)”
# FGFR2 = experiment: Rescue of degrader-induced FGFR2 degradation by pretreatment, immunoblot in Kato III cells; format: cell-based; conditions: for rescue of FGFR2 degradation induced by bispecific compound 6: pretreated 2 h (10 μM BGJ398, 10 μM control-1, 0.5 M Bortezomib, 1 μM MLN4924), then 0.1 M bispecific compound 6 for 4 h; for rescue of FGFR2 degradation induced by bispecific compound 20: pretreated 2 h (10 μM FIIN2, 10 M control-1, 0.5 M Bortezomib, 1 μM MLN4924), then 1 M bispecific compound 20 for 4 h
# Method: Kato III cells were pretreated with 10 μM BGJ398 (the parental compound and known FGFR1/2/3 inhibitor; available from, e.g., MedChemExpress®, Cat. No. HY-13311, Monmouth Junction, N.J.), 10 μM control-1 (VHL ligand), 0.5 M Bortezomib (a proteasome inhibitor; available from, e.g., Millipore Sigma®, Cat. No. 179324-69-7, Burlington, Mass.), and 1 μM MLN4924 (a neddylation inhibitor; available from, e.g., MedChemExpress®, Cat. No. HY-70062, Monmouth Junction, N.J.), for 2 h, and then treated with 0.1 M bispecific compound 6 for 4 h. Cells were lysed and immunoblotted as described above with antibodies to FGFR2 and β-Actin.
# Kato III cells were pretreated with 10 μM FIIN2 (the parental compound and known FGFR1/2/3/4 inhibitor; available from, e.g., Selleckchem, Cat. No. S7714, Houston, Tex.), 10 M control-1 (VHL ligand), 0.5 M Bortezomib (a proteasome inhibitor; available from, e.g., Millipore Sigma, Cat. No. 179324-69-7, Burlington, Mass.), and 1 μM MLN4924 (a neddylation inhibitor; available from, e.g., MedChemExpress, Cat. No. HY-70062, Monmouth Junction, N.J.), for 2 h, and then treated with 1 M bispecific compound 20 for 4 h. Cells were lysed and immunoblotted as described above with antibodies to FGFR2 and β-Actin.
# [1] = system: FGFR alteration (fusions, amplifications, or point mutations); conditions: cited from earlier work
# [2] = patients with advanced refractory ICC with an FGFR alteration
# T1 sequence (P50750 whole entry): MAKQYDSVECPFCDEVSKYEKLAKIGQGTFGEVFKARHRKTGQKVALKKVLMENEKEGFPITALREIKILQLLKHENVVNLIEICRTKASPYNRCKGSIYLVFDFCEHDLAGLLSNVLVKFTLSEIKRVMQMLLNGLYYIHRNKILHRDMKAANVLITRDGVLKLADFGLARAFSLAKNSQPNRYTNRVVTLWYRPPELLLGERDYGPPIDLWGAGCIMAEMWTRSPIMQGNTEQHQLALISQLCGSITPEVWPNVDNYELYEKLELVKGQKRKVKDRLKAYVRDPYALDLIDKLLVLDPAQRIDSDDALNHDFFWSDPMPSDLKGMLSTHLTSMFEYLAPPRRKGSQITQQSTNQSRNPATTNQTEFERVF
# T1 sequence (O60563 whole entry partner): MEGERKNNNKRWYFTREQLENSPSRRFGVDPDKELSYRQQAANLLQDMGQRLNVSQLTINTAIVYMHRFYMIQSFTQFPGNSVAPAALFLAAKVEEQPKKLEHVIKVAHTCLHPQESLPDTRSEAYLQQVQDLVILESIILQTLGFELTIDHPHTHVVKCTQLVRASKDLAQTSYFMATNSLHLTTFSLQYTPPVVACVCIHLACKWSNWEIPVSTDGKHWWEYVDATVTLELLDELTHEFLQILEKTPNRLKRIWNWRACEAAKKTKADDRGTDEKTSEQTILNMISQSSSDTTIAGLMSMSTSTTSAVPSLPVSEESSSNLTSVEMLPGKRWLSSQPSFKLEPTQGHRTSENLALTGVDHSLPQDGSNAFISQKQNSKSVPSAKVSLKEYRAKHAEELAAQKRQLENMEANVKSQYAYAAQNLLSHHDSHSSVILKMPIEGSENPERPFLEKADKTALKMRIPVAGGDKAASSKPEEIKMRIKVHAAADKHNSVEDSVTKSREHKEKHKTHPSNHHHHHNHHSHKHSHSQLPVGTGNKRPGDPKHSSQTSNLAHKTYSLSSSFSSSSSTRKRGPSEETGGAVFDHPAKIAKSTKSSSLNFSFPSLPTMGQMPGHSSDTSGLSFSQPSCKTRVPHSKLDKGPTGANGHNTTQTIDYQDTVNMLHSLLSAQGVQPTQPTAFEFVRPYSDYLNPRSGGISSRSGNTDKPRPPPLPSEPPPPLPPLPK
compound,measurement,setting,value
CC(C)(C)c1cnc(CSc2cnc(NC(=O)C3CCN(CC(=O)NCCOCCOCCOCCNc4cccc5c4C(=O)N(C4CCC(=O)NC4=O)C5=O)CC3)s2)o1 (stereo not drawn) [THAL-SNS-032],CDK9 degradation,"CDK9; CCLP1 cells, 0.5 μM",induced CDK9 degradation
same,CDK9 degradation,"CDK9; JHH7 cells, 0.5 µM",induces CDK9 degradation
same,CDK9 degradation,"CDK9; Kato III cells, 0.5 µM",induced CDK9 degradation
CCN1CCN(c2ccc(Nc3cc(N(C)C(=O)Nc4c(Cl)c(OC)cc(OC)c4Cl)ncn3)cc2)CC1 [BGJ398],IC50,"Kato III cells; Homo sapiens, KATO III, read-out: IC50 (concentration needed to reduce cell viability to 50% of the vehicle DMSO control)",~1 nM
same,anti-proliferation effect,Kato III cells; Kato III cells,good anti-proliferation effect
same,rescue of FGFR2 degradation induced by bispecific compound 6,FGFR2,rescued the FGFR2 degradation
same,disease control rate (DCR; partial responses+stable disease),[1]; FGFR2 fusions only,83.3%
same,overall response rate (ORR),[1]; FGFR2 fusions only,18.8%
same,Median progression free survival,[1]; [2],"5,8 months"
same,disease control rate (DCR; partial responses+stable disease),[1]; [2],75.4%
same,overall response rate (ORR),[1]; [2],14.8%
CC(=O)N[C@H](C(=O)N1C[C@H](O)C[C@H]1C(=O)N[C@@H](C)c1ccc(-c2scnc2C)cc1)C(C)(C)C [control-1],rescue of FGFR2 degradation induced by bispecific compound 6,FGFR2,rescued the FGFR2 degradation
same,rescue of FGFR2 degradation induced by bispecific compound 20,FGFR2,rescued the FGFR2 degradation
C=CC(=O)Nc1ccc(CN2C(=O)N(c3cc(OC)cc(OC)c3)Cc3cnc(Nc4ccc(N5CCN(C)CC5)cc4)nc32)cc1 [FIIN2],rescue of FGFR2 degradation induced by bispecific compound 20,FGFR2,rescued the FGFR2 degradation
CC(C)C[C@H](NC(=O)[C@H](Cc1ccccc1)NC(=O)c1cnccn1)B(O)O [Bortezomib],rescue of FGFR2 degradation induced by bispecific compound 6,FGFR2,rescued the FGFR2 degradation
same,rescue of FGFR2 degradation induced by bispecific compound 20,FGFR2,rescued the FGFR2 degradation
NS(=O)(=O)OC[C@@H]1C[C@@H](n2ccc3c(N[C@H]4CCc5ccccc54)ncnc32)C[C@@H]1O [MLN4924],rescue of FGFR2 degradation induced by bispecific compound 6,FGFR2,rescued the FGFR2 degradation
same,rescue of FGFR2 degradation induced by bispecific compound 20,FGFR2,rescued the FGFR2 degradation
